Patent US20260315446A1, “ANTIFUNGAL COMPOUNDS AND USES THEREOF” (priority 2023, published 2026)
In brackets after ≈: the same amount, converted by molar mass. Entries after “also recorded” stand apart in the source; their conditions may differ. Where two headings read alike, the source gives them in different places.

Experiments:
[1] = tested on: Candida albicans (SC5314); assay: Broth microdilution MIC (Example 1); format: cell-based; conditions: in the presence of 1 μg/mL fluconazole; for MIC: Candida albicans, SC5314, read-out: MIC against Candida albicans (SC5314)
Experimental: (§1) MICs/minimum effective concentrations (MECs) were determined for each of the novel analogs against the three major human fungal pathogens, A. fumigatus, C. neoformans, and C. albicans. […] Thus, analogs of FK506 and FK520 can tolerate up to 100-fold reduction in antifungal activity and still be considered for in vivo testing. For C. neoformans, MICs were the most uniform and ranged from 0.2 to 2 μg/mL, which is between 4- and 40-fold reduced for antifungal activity.
(§2) In vitro antifungal activities of FK506, FK520, and analogs were assessed in RPMI 1640 (Sigma-Aldrich) for all strains tested. MICs/minimum effective concentrations (MECs) for each drug were measured using modified Clinical and Laboratory Standards Institute (CLSI) M38-A2 and M27-A3 standard in vitro antifungal susceptibility protocols. Broth microdilution assays for MIC/MEC assessment were performed as described previously (see, Juvvadi P R, et al., 2019, Nat Commun 10:4275). All antifungal assays with C. neoformans were performed at 37° C. Antifungal susceptibility testing for C. albicans was performed in the presence of a uniform 1 μg/mL concentration of fluconazole to sensitize the organism to calcineurin inhibition.

[2] = tested on: Cryptococcus neoformans (H99); assay: Broth microdilution MIC (Example 1); format: cell-based; conditions: for MIC: Cryptococcus neoformans, read-out: MIC against Cryptococcus neoformans (H99)
Experimental: as §1, §2

[3] = tested on: IL-2 expression in primary murine CD4+ T cells; assay: In vitro immunosuppressive activity, IL-2 expression (Example 1); format: cell-based, mouse; conditions: for IC50: Mus musculus, CD4+ T, 72 h, PMA and ionomycin stimulation, read-out: IL-2 50% inhibitory concentration (IC50)
Experimental: The potent immunosuppressive activity of FK506 and FK520 is what precludes these highly antifungal compounds from being utilized clinically to treat invasive fungal infections. Therefore, it is essential to understand the level of immunosuppressive activity for each of these analogs to determine if these C-22 modifications improve the fungal selectivity. Utilizing a primary murine T-cell model, IL-2 expression was assessed following growth in the presence of calcineurin inhibitors (FIG. 6A). Naive, primary CD4^+ T cells were collected from mice and grown for 72 h in the presence of FK506, FK520, or an analog. Following stimulation with phorbol 12-myristate 13-acetate (PMA) and ionomycin, the proportion of cells producing IL-2, a key calcineurin-dependent cytokine, was measured with flow cytometry. All compounds generated a dose-dependent reduction in IL-2 production.
Spleen and lymph nodes were collected from C57BL/6 mice and homogenized through a 40-μm filter. Pan-CD4^+ T cells were enriched using a MagniSort mouse CD4 T-cell kit (eBioscience) according to the manufacturer's protocol. Thereafter, CD4^+CD25^− CD44^loCD62L^hi naive T cells were sorted by fluorescence-activated cell sorting (FACS). The naive CD4^+ T cells were grown in Iscove's modified Dulbecco's medium (IMDM) supplemented with glutamine, penicillin, streptomycin, gentamicin, 2-mercaptoethanol, and 10% fetal bovine serum (FBS). Cells were then cultured on anti-hamster IgG-coated plates in the presence of hamster anti-CD3 epsilon and anti-CD28 antibodies (BD Biosciences), neutralizing anti-IL-4 antibody (eBioscience), recombinant IL-12 (10 ng/mL), and recombinant IL-2 (50 U/mL) for 72 h. During this period, cells were grown in the presence of 2× serially diluted FK506, FK520, or analog suspended in DMSO for 72 h. During the last 4 h of culture, phorbol 12-myristate 13-acetate (PMA; Sigma), ionomycin (Sigma), and GolgiStop (BD Biosciences) were added to the culture to facilitate detection of intracellular cytokines via flow cytometry. Live cells were stained with fluorescein isothiocyanate (FITC)-conjugated anti-CD4 antibody (eBioscience) and fixable viability dye eFluor 506 (eBioscience) on ice, followed by fixation and permeabilization using the Foxp3 transcription factor staining kit (eBioscience). Intracellular staining was performed at room temperature using phycoerythrin (PE)-conjugated anti-IL-2 antibody (eBioscience), followed by analysis with a BD LSRFortessa X-20 flow cytometer.

Candida albicans = assay: MIC assay (Example 3); format: cell-based; conditions: for MIC: Candida albicans, SC5314, read-out: MIC against Candida albicans (SC5314)
Experimental: (§3) In vitro antifungal activity was assessed for all fungal strains in RPMI 1640 (Sigma-Aldrich R1383). MICs were measured using Clinical and Laboratory Standards Institute (CLSI) M38-A2 and M27-A3 standard in vitro antifungal susceptibility protocols. C. neoformans and A. fumigatus testing was performed at 37° C. MECs for A. fumigatus were recorded after 48 h of growth. C. albicans testing was performed at 30° C. with a uniform concentration of 2 μg/mL of fluconazole to sensitize the cells to calcineurin inhibition.
(§4) C. neoformans clinical isolate H99 and congenic-derived strain KN99α were used (see, Nielsen K, et al., 2003. Infect Immun 71:4831-4841). KN99α-derived frr1Δ deletion mutants with nourseothricin resistance markers as part of the Madhani deletion collection (NIH funding R01AI100272) were used. C. deneoformans strains used include JEC21 and derived C21F2 (CNB1-1) and C21F3 (frr1-3) strains (see, Odom A, et al., 1997. EMBO J 16:2576-2589; Moore T D, Edman J C. 1993. Mol Cell Biol 13:1962-1970; Fox D S, et al., 2001. Mol Microbiol 39:835-849). C. albicans strain SC5314 is the wild-type strain from which mutants YAG171 (rbp1/rbp1) and YAG237 (CNB1-1/CNB1) were derived (see, Cruz M C, et al., 2001. Antimicrob Agents Chemother 45:3162-3170). A. fumigatus strain akuB^Ku80 and a derived FKBP12 mutant fkbp12A were used during antifungal screening (see, Falloon K, et al., 2015. PLoS One 10:e0137869).

Cryptococcus neoformans = assay: MIC assay (Example 3); format: cell-based; conditions: for antifungal activity at 37° C. versus 30° C.: C. neoformans; for MIC: Cryptococcus neoformans
Experimental: as §3, §4

Aspergillus fumigatus = assay: MEC assay (Example 3)
[4] = MIC80, 30° C. with 2 μg/mL fluconazole
[5] = MIC90, 37° C., read-out: MIC against Cryptococcus neoformans (H99)

C=CCC1C=C(C)CC(C)CC(OC)C2OC(O)(C(=O)C(=O)N3CCCCC3C(=O)OC(C(C)=CC3CCC(O)C(OC)C3)C(C)C(O)CC1=O)C(C)CC2OC (centres unmarked) [FK506, reference compound]
MIC [1]: 0.02 mg/L
MIC ([2]; 37° C.): 0.05 mg/L (≈ 0.0622 µM)
IL-2 inhibition / immunosuppression [3]: highest level of IL-2 inhibition
MIC (Candida albicans; [4]): 0.02 mg/L (≈ 0.0249 µM)
antifungal activity at 37° C. versus 30° C. (Cryptococcus neoformans): potent antifungal activity against C. neoformans at 37 °C but not at 30 °C
MIC (Cryptococcus neoformans; [5]): 0.05 mg/L (≈ 0.0622 µM)
MIC (Cryptococcus neoformans; Table 8, read-out: H99 MIC90): 0.05 mg/L (≈ 0.0622 µM)
MEC against Aspergillus fumigatus (akuB^Ku80) (Aspergillus fumigatus; strain akuB^Ku80): 0.04 µg/mL

CC[C@@H]1/C=C(\C)C[C@H](C)C[C@H](OC)[C@H]2O[C@@](O)(C(=O)C(=O)N3CCCC[C@H]3C(=O)O[C@H](/C(C)=C/[C@@H]3CC[C@@H](O)[C@H](OC)C3)[C@H](C)[C@@H](O)C/C1=N/NC(C)=O)[C@H](C)C[C@@H]2OC [JH-FK-05]
MIC [1]: 0.8 mg/L
fold reduction of antifungal activity compared to FK506 ([2]; C. neoformans): 20 fold
broad-spectrum antifungal activity / MIC ranking ([2]; C. neoformans, C. albicans, A. fumigatus): maintained high levels of broad-spectrum antifungal activity across the three species
MIC ([2]; 37° C.): 1 mg/L (≈ 1.18 µM)
IC50 [3]: 0.02 µM

CC[C@@H]1/C=C(\C)C[C@H](C)C[C@H](OC)[C@H]2O[C@@](O)(C(=O)C(=O)N3CCCC[C@H]3C(=O)O[C@H](/C(C)=C/[C@@H]3CC[C@@H](O)[C@H](OC)C3)[C@H](C)[C@@H](O)CC1=O)[C@H](C)C[C@@H]2OC [FK520, reference compound]
MIC against Candida albicans (SC5314) [1]: 0.02 mg/L
MIC against Cryptococcus neoformans (H99) ([2]; 37° C.): 0.05 mg/L (≈ 0.0631 µM)
antifungal activity (MIC/MEC range) ([2]; range over C. neoformans, C. albicans and A. fumigatus): 0.016 to 0.05 mg/L
IL-2 inhibition / immunosuppression [3]: highest level of IL-2 inhibition; also recorded: slightly reduced compared to that of FK506
MIC against Candida albicans (SC5314) (Candida albicans; [4]): 0.02 mg/L (≈ 0.0253 µM)
antifungal activity at 37° C. versus 30° C. (Cryptococcus neoformans): potent antifungal activity against C. neoformans at 37 °C but not at 30 °C
MIC against Cryptococcus neoformans (H99) (Cryptococcus neoformans; MIC90, 37° C.): 0.05 mg/L (≈ 0.0631 µM)
H99 MIC90 (Cryptococcus neoformans; Table 8): 0.05 mg/L
MEC against Aspergillus fumigatus (akuB^Ku80) (Aspergillus fumigatus): 0.16 µg/mL

C=CC[C@@H]1/C=C(\C)C[C@H](C)C[C@H](OC)[C@H]2O[C@@](O)(C(=O)C(=O)N3CCCC[C@H]3C(=O)O[C@H](/C(C)=C/[C@@H]3CC[C@@H](O)[C@H](OC)C3)[C@H](C)[C@@H](O)C/C1=N/NC(=O)CC)[C@H](C)C[C@@H]2OC [JH-FK-02]
MIC [1]: 1.6 mg/L
MIC ([2]; 37° C.): 2 mg/L (≈ 2.29 µM)
IC50 [3]: 0.0426 µM
fold increase of IL-2 IC50 / reduction of immunosuppression compared to FK506 ([3]; relative to FK506): > 380 fold

CC[C@@H]1/C=C(\C)C[C@H](C)C[C@H](OC)[C@H]2O[C@@](O)(C(=O)C(=O)N3CCCC[C@H]3C(=O)O[C@H](/C(C)=C/C3CC[C@@H](O)[C@H](OC)C3)[C@H](C)[C@@H](O)C/C1=N/NC(=O)OC)[C@H](C)C[C@@H]2OC (some centres unmarked) [JH-FK-08]
MIC/MEC (Candida albicans): >25 mg/L
MIC (Candida albicans; [4]): 0.4 mg/L (≈ 0.463 µM)
antifungal activity at 37° C. versus 30° C. (Cryptococcus neoformans): potent antifungal activity against C. neoformans at 37 °C but not at 30 °C
MIC (Cryptococcus neoformans; [5]): 0.8 mg/L (≈ 0.926 µM)
MIC (Cryptococcus neoformans; Table 8, read-out: H99 MIC90): 0.8 mg/L (≈ 0.926 µM)
MIC/MEC (Cryptococcus neoformans; strain frr1Δ (KN99α frr1Δ::NAT), MIC90, 37° C.): >25 mg/L
MEC against Aspergillus fumigatus (akuB^Ku80) (Aspergillus fumigatus; strain akuB^Ku80): 1.3 µg/mL
MIC/MEC (Aspergillus fumigatus; strain akuB^Ku80): 1.25 mg/L (≈ 1.45 µM)
MIC/MEC (Aspergillus fumigatus; strain Δfkbp12 (akuB^Ku80 fkbp12Δ)): >20 mg/L
